# Data: patent US20100249064A1, “METHODS AND COMPOSITIONS FOR TREATING DISEASES AND CONDITIONS INVOLVING HIGHER MOLECULAR WEIGHT HYALURONAN” (University of Chicago, priority 2007, published 2010)
# How the values were obtained:
# Human pulmonary EC = assay: TER, HABP2/C1INH regulation of EC barrier function (Examples 3 and 6); assay type: cell-based; conditions: 100 nM HA or 10 μg/ml purified HABP2
# Protocol: Measurement of transendothelial monolayer electrical resistance (TER). EC were grown to confluence in polycarbonate wells containing evaporated gold microelectrodes, and TER measurements performed using an electrical cell-substrate impedance sensing system obtained from Applied Biophysics (Troy, N.Y.) as previously described in detail (Garcia et al. 2001). TER values from each microelectrode were pooled at discrete time points and plotted versus time as the mean±S.E.
# Determination of EC barrier function. Human pulmonary endothelial cells were grown to confluence in polycarbonate wells containing evaporated gold microelectrodes (surface area, 10-3 cm^2) in series with a large gold counter electrode (1 cm^2) connected to a phase-sensitive lock-in amplifier as described previously. Measurements of transendothelial electrical resistance (TER) were performed using an electrical cell-substrate impedance sensing system (ECIS) (Applied BioPhysics Inc.). Briefly, current was applied across the electrodes by a 4,000-Hz AC voltage source with amplitude of 1 V in series with a 1 MS/resistance to approximate a constant current source (˜1 μA). The in-phase and out-of-phase voltages between the electrodes were monitored in real time with the lock-in amplifier and subsequently converted to scalar measurements of transendothelial impedance, of which resistance was the primary focus. TER was monitored for 30 minutes to establish a baseline resistance (R0) which, for pulmonary endothelium, was typically between 8 to 12×10^3Ω (wells with R0<7×10^3Ω were rejected). As cells adhere and spread out on the microelectrode, TER increases (maximal at confluence), whereas cell retraction, rounding, or loss of adhesion was reflected by a decrease in TER. These measurements provide a highly sensitive biophysical assay that indicates the state of cell shape and focal adhesion. Values from each microelectrode were pooled at discrete time points and plotted versus time as the mean±SE of the mean (Garcia et al., 2001).
# RhoA and Rac = assay: Rho family activation assay; assay type: cell-based, human; conditions: 100 nM HA; for Rac1 activation: LMW-HA 5 min, HMW-HA 5, 15, 30 min
# Protocol: Rho Family Activation Assay—The RhoA and Rac activation assays using human lung EC were performed as described (Ren et al., 1999).
# HABP2 = HABP2 protein expression in EC by immunoblotting; assay type: cell-based, human; conditions: 100 nM HA, EC lysates, immunoblot
# Protocol: Immunoblotting. Proteins in the EC lysates or mouse lung homogenates were solubilized in solubilization buffer, separated on SDS-PAGE, and analyzed by immunoblotting with specific antisera and HRP conjugated secondary antibody with enhanced chemiluminescence detection (Amersham Biosciences).
# Treatment with LPS, low and high MW hyaluronan. EC were treated with 1.0 μg/ml LPS, 100 nM HMW-HA (˜1 million Daltons) or 100 nM LMW-HA (˜2,500 Daltons) for 24 hours and EC media and lysates were obtained.
# Cell culture preparation and treatment. Human pulmonary microvascular EC (HPMVEC) (Cambrex), grown in EBM-2 complete medium (Cambrex) at 37° C. in a humidified atmosphere of 5% CO2, 95% air, with passages 6-10 used for experimentation will be treated with or without 1.0 μg/ml LPS, 100 nM HMW-HA and/or 100 nM LMW-HA in the presence or absence of exogenous purified recombinant HABP2 polyanion binding domain and/or C1INH (Novus Biologicals), HABP2 and/or C1INH overexpression vector or siRNA (scramble, HABP2, C1INH, PAR-1, PAR-2, PAR-3, PAR-4, tenascin-C or perlecan) or the potent hyaluronidase inhibitor, L-ascorbic acid 6-hexadecanoate (Botzki et al., 2004) (Sigma). Extracellular media and/or treated EC will either be analyzed for protein expression, HABP2 protease activity, hyaluronidase activity or Trans-endothelial Electrical Resistance (TER). […]
substance,measurement,setting,value
hyaluronan [HMW-HA],change in TER / EC barrier function,Human pulmonary EC; listed as High MW hyaluronan,increased transendothelial monolayer electrical resistance (TER)
same,Rac1 activation,RhoA and Rac,induced Rac1 activation
same,HABP2 protein expression in EC,HABP2; listed as high MW hyaluronan,reduced
"hyaluronan [LMW-HA, reference compound]",change in TER / EC barrier function,Human pulmonary EC; listed as low MW hyaluronan,induced negative TER changes ultimately resulting in EC barrier disruption
same,RhoA activation,RhoA and Rac; 15-30 min,promoted RhoA activation
same,Rac1 activation,RhoA and Rac,induced Rac1 activation
same,HABP2 protein expression in EC,HABP2; listed as low molecular weight (MW) hyaluronan,significantly enhanced
